Measured values: patent publication US12240862B2, “Inhibitors of peptidylarginine deiminases” (Gilead Sciences, Inc., priority 2020, dated 2025)

Molecular target: T1, human PAD4 (Homo sapiens, UniProt Q9UM07)
T1 construct: human PAD4 (NM_012387), A2P663, was PCR amplified; His-SUMO (N, cleaved yes); made in house; host or cells: E. coli BL21(DE3)
Assay: In vitro PAD4 BAEE biochemical assay
Conditions: human PAD4, BAEE substrate; 5 nM PAD4, 2 mM calcium chloride, 3 mM BAEE; geometric mean of multiple experiments
Outline: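 Tag-free recombinant hPAD4 (5 nM), 2 mM CaCl2, 3 mM BAEE, 50 mM MOPS pH 7.6, 2 mM DTT; 30 min compound preincubation, 2 h reaction, all 25 °C. EDTA quench; ammonia read via o-phthalaldehyde amine coupling, 1 h.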

T1 sequence (Q9UM07 2-663): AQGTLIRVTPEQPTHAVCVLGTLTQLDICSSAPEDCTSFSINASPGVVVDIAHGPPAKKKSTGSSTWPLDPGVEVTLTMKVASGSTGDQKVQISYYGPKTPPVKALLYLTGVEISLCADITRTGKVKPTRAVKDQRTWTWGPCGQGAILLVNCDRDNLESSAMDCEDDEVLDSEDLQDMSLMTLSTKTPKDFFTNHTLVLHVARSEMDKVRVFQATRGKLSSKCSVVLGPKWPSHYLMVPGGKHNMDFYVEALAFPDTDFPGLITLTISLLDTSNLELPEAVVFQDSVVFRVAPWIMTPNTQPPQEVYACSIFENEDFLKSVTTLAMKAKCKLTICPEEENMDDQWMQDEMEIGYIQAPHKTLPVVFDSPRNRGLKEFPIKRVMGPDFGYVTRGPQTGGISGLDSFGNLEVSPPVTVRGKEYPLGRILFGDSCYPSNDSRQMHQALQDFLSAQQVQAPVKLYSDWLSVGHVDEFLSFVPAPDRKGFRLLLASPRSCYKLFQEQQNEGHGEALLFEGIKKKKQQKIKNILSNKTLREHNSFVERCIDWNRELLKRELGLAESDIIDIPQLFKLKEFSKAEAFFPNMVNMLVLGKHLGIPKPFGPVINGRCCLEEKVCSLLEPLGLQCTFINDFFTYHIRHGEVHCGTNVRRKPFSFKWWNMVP

Row | SMILES | IC50 [nM]
1 | COc1cc(C(=O)N2CCC[C@@H](N)C2)cc2nc(-c3cc4ccc([C@@H](C)NCC(F)(F)F)nc4n3CC3CC3)c(C)n12 [Example 267, [(3~{R})-3-aminopiperidin-1-yl]-[2-[1-(cyclopropylmethyl)-6-[(1~{R})-1-(2,2,2-trifluoroethylamino)ethyl]pyrrolo[2,3-b]pyridin-2-yl]-5-methoxy-3-methylimidazo[1,2-a]pyridin-7-yl]methanone] | 521
2 | COc1cc(C(=O)N2CCC[C@@H](N)C2)cc2nc(-c3cc4ccc([C@@H](C)NS(C)(=O)=O)nc4n3CC3CC3)c(C)n12 [Example 268, ~{N}-[(1~{R})-1-[2-[7-[(3~{R})-3-aminopiperidine-1-carbonyl]-5-methoxy-3-methylimidazo [1,2-a]pyridin-2-yl]-1-(cyclopropylmethyl)pyrrolo [2,3-b]pyridin-6-yl]ethyl]methanesulfonamide] | 257
3 | COc1cc(C(=O)N2[C@H]3CC[C@@H]2[C@H](N)C3)cc2nc(-c3cc4ccc([C@@H](C)N5C(=O)CCC5C)nc4n3CC3CC3)c(C)n12 (stereo partly drawn) [Example 269, 1-[(1~{R})-1-[2-[7-[(1~{R},2~{R},4~{S})-2-amino-7-azabicyclo[2.2.1]heptane-7-carbonyl]-5-methoxy-3-methylimidazo [1,2-a]pyridin-2-yl]-1-(cyclopropylmethyl)pyrrolo [2,3-b]pyridin-6-yl]ethyl]-5-methylpyrrolidin-2-one] | 67.8
4 | COc1cc(C(=O)N2[C@H]3CC[C@@H]2[C@H](N)C3)cc2nc(-c3cc4ccc([C@@H](C)N5CCN(C)C5=O)nc4n3CC3CC3)c(C)n12 [Example 270, 1-[(1~{R})-1-[2-[7-[(1~{R},2~{R},4~{S})-2-amino-7-azabicyclo[2.2.1]heptane-7-carbonyl]-5-methoxy-3-methylimidazo [1,2-a]pyridin-2-yl]-1-(cyclopropylmethyl)pyrrolo [2,3-b]pyridin-6-yl]ethyl]-3-methylimidazolidin-2-one] | 34.7
5 | COc1cc(C(=O)N2[C@H]3CC[C@@H]2[C@H](N)C3)cc2nc(-c3cc4ccc([C@@H](C)N5CCCCC5=O)nc4n3CC3CC3)c(C)n12 [Example 271] | 35.6
6 | COc1cc(C(=O)N2[C@H]3CC[C@@H]2[C@H](N)C3)cc2nc(-c3cc4ccc([C@@H](C)N5CCCC5)nc4n3CC3CC3)c(C)n12 [Example 272, [(1~{R},2~{R},4~{S})-2-amino-7-azabicyclo [2.2.1]heptan-7-yl]-[2-[1-(cyclopropylmethyl)-6-[(1~{R})-1-pyrrolidin-1-ylethyl]pyrrolo[2,3-b]pyridin-2-yl]-5-methoxy-3-methylimidazo[1,2-a]pyridin-7-yl]methanone] | 134
7 | COc1cc(C(=O)N2[C@H]3CC[C@@H]2[C@H](N)C3)cc2nc(-c3cc4ccc([C@@H](C)N5CCNC5=O)nc4n3CC3CC3)c(C)n12 [Example 273, 1-[(1~{R})-1-[2-[7-[(1~{R},2~{R},4~{S})-2-amino-7-azabicyclo[2.2.1]heptane-7-carbonyl]-5-methoxy-3-methylimidazo [1,2-a]pyridin-2-yl]-1-(cyclopropylmethyl)pyrrolo [2,3-b]pyridin-6-yl]ethyl] imidazolidin-2-one] | 83.1
8 | COc1cc(C(=O)N2[C@H]3CC[C@@H]2[C@H](N)C3)cc2nc(-c3cc4ccc([C@@H](C)N5CCOCC5=O)nc4n3CC3CC3)c(C)n12 [Example 274, 4-[(1~{R})-1-[2-[7-[(1~{R},2~{R},4~{S})-2-amino-7-azabicyclo[2.2.1]heptane-7-carbonyl]-5-methoxy-3-methylimidazo [1,2-a]pyridin-2-yl]-1-(cyclopropylmethyl)pyrrolo [2,3-b]pyridin-6-yl]ethyl]morpholin-3-one] | 252
9 | COc1cc(C(=O)N2[C@H]3CC[C@@H]2[C@H](N)C3)cc2nc(-c3cc4ccc([C@@H](C)N5CCOC5=O)nc4n3CC3CC3)c(C)n12 [Example 275, 3-((R)-1-(2-(7-((1R,2R,4S)-2-amino-7-azabicyclo[2.2.1]heptane-7-carbonyl)-5-methoxy-3-methylimidazo[1,2-a]pyridin-2-yl)-1-(cyclopropylmethyl)-1H-pyrrolo[2,3-b]pyridin-6-yl)ethyl)oxazolidin-2-one] | 14.1
10 | COc1cc(C(=O)N2[C@H]3CC[C@@H]2[C@H](N)C3)cc2nc(-c3cc4ccc([C@@H](C)N5CCCC5=O)nc4n3CC3CC3)c(C)n12 [Example 276, 1-[(1~{R})-1-[2-[7-[(1~{R},2~{R},4~{S})-2-amino-7-azabicyclo[2.2.1]heptane-7-carbonyl]-5-methoxy-3-methylimidazo [1,2-a]pyridin-2-yl]-1-(cyclopropylmethyl)pyrrolo [2,3-b]pyridin-6-yl]ethyl]pyrrolidin-2-one] | 61.6
11 | COc1cc(C(=O)N2[C@H]3CC[C@@H]2[C@H](N)C3)cc2nc(-c3cc4ccc([C@@H](C)N5CCOCC5)nc4n3CC3CC3)c(C)n12 [Example 277, [(1~{R},2~{R},4~{S})-2-amino-7-azabicyclo [2.2.1]heptan-7-yl]-[2-[1-(cyclopropylmethyl)-6-[(1~{R})-1-morpholin-4-ylethyl]pyrrolo[2,3-b]pyridin-2-yl]-5-methoxy-3-methylimidazo[1,2-a]pyridin-7-yl]methanone] | 191
12 | COc1cc(C(=O)N2CCC[C@@H](N)C2)cc2nc(-c3cc4ccc([C@@H](C)N5CCOC5=O)nc4n3CC3CC3)c(C)n12 [Example 278, 3-[(1~{R})-1-[2-[7-[(3~{R})-3-aminopiperidine-1-carbonyl]-5-methoxy-3-methylimidazo [1,2-a]pyridin-2-yl]-1-(cyclopropylmethyl)pyrrolo [2,3-b]pyridin-6-yl]ethyl]-1,3-oxazolidin-2-one] | 144
13 | COc1cc(C(=O)N2CCC[C@@H](N)C2)cc2nc(-c3cc4ccc([C@@H](C)N5CCCC5=O)nc4n3CC3CC3)c(C)n12 [Example 279, 1-[(1~{R})-1-[2-[7-[(3~{R})-3-aminopiperidine-1-carbonyl]-5-methoxy-3-methylimidazo [1,2-a]pyridin-2-yl]-1-(cyclopropylmethyl)pyrrolo [2,3-b]pyridin-6-yl]ethyl] pyrrolidin-2-one] | 234
14 | COc1cc(C(=O)N2C[C@@H](N)[C@H](F)C2)cc2nc(-c3cc4ccc(N(C(F)F)S(C)(=O)=O)nc4n3CC3CC3)c(C)n12 [Example 280, ~{N}-[2-[7-[(3~{R}, 4~{R})-3-amino-4-fluoropyrrolidine-1-carbonyl]-5-methoxy-3-methylimidazo [1,2-a]pyridin-2-yl]-1-(cyclopropylmethyl)pyrrolo[2,3-b]pyridin-6-yl]-~{N}-(difluoromethyl) methanesulfonamide] | 33800
15 | COc1cc(C(=O)N[C@@H]2CNCC[C@H]2C)cc2nc(-c3cc4ccc(N(C(F)F)S(C)(=O)=O)nc4n3CC3CC3)c(C)n12 [Example 281, 2-[1-(cyclopropylmethyl)-6-[difluoromethyl (methylsulfonyl)amino]pyrrolo[2,3-b]pyridin-2-yl]-5-methoxy-3-methyl-~{N}-[(3~{S},4~{R})-4-methylpiperidin-3-yl] imidazo[1,2-a]pyridine-7-carboxamide] | 16200
16 | COc1cc(C(=O)N[C@H]2CNCC[C@@H]2C)cc2nc(-c3cc4ccc(N(C(F)F)S(C)(=O)=O)nc4n3CC3CC3)c(C)n12 [Example 282, 2-[1-(cyclopropylmethyl)-6-[difluoromethyl (methylsulfonyl)amino]pyrrolo[2,3-b]pyridin-2-yl]-5-methoxy-3-methyl-~{N}-[(3~{R},4~{S})-4-methylpiperidin-3-yl]imidazo[1,2-a] pyridine-7-carboxamide] | 10400
17 | COc1cc(C(=O)N2C[C@@H]3CNCC[C@@H]32)cc2nc(-c3cc4ccc(N(C(F)F)S(C)(=O)=O)nc4n3CC3CC3)c(C)n12 [Example 283, ~{N}-[1-(cyclopropylmethyl)-2-[7-[(1~{S},6~{S})-3,7-diazabicyclo[4.2.0]octane-7-carbonyl]-5-methoxy-3-methylimidazo[1,2-a]pyridin-2-yl]pyrrolo[2,3-b]pyridin-6-yl]-~{N}-(difluoromethyl) methanesulfonamide] | 11700
18 | COc1cc(C(=O)N2C[C@H]3CNCC[C@H]32)cc2nc(-c3cc4ccc(N(C(F)F)S(C)(=O)=O)nc4n3CC3CC3)c(C)n12 [Example 284, ~{N}-[1-(cyclopropylmethyl)-2-[7-[(1~{R},6~{R})-3,7-diazabicyclo[4.2.0]octane-7-carbonyl]-5-methoxy-3-methylimidazo[1,2-a]pyridin-2-yl]pyrrolo[2,3-b]pyridin-6-yl]-~{N}-(difluoromethyl) methanesulfonamide] | 13400
19 | COc1cc(C(=O)N[C@H]2CNCC[C@@H]2OC)cc2nc(-c3cc4ccc(N(C(F)F)S(C)(=O)=O)nc4n3CC3CC3)c(C)n12 [Example 285, 2-[1-(cyclopropylmethyl)-6-[difluoromethyl (methylsulfonyl)amino]pyrrolo[2,3-b]pyridin-2-yl]-5-methoxy-~ {N}-[(3~{S},4~{S})-4-methoxypiperidin-3-yl]-3-methylimidazo[1,2-a] pyridine-7-carboxamide] | 14000
20 | COc1cc(C(=O)N2C[C@@H]3CCNCC32)cc2nc(-c3cc4ccc(N(C(F)F)S(C)(=O)=O)nc4n3CC3CC3)c(C)n12 (stereo partly drawn) [Example 287, ~{N}-[1-(cyclopropylmethyl)-2-[7-[(6~{S},8~{R})-3,8-diazabicyclo[4.2.0]octane-8-carbonyl]-5-methoxy-3-methylimidazo[1,2-a]pyridin-2-yl]pyrrolo[2,3-b]pyridin-6-yl]-~{N}-(difluoromethyl) methanesulfonamide] | 46300
21 | COc1cc(C(=O)N[C@H]2CNCC[C@@H]2C)cc2nc(-c3cc4ccc(N(C(F)F)S(C)(=O)=O)nc4n3CC3CC3)c(C)n12 [Example 288, 2-[1-(cyclopropylmethyl)-6-[difluoromethyl (methylsulfonyl)amino]pyrrolo[2,3-b]pyridin-2-yl]-5-methoxy-3-methyl-~{N}-[(3~{R},4~{S})-4-methylpiperidin-3-yl]imidazo[1,2-a]pyridine-7-carboxamide] | 8360
